Source: PubChem BioAssay AID1963842 (Molecular Pharmacology Branch, DTP, NCI, 2024)

Tested on: 677734-321-R-J1-PDC complex spheroid viability
Test: Anticancer human tumor 677734-321-R-J1-PDC patient-derived soft tissue sarcoma cell line growth inhibition [POLQ]
Conditions: for IC50: curve of first compound; for viability, T/C: stronger effect = lower value
How it was run: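 Growth inhibition in 3D: complex spheroids (tumor PDC, HUVEC, MSC) treated with POLQ inhibitor combinations; where Cmax unknown, highest tested concentration 10 microM, except SN-38 at 1 microM.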

[1] = second compound 0.0316 µM, first compound 0.0316 µM
[2] = second compound 0.0316 µM, first compound 0.1 µM
[3] = second compound 0.0316 µM, first compound 0.316 µM
[4] = second compound 0.0316 µM, first compound 1 µM
[5] = second compound 0.0316 µM, first compound 3.16 µM
[6] = second compound 0.0316 µM, first compound 10 µM
[7] = second compound 0.1 µM, first compound 0.0316 µM
[8] = second compound 0.1 µM, first compound 0.1 µM
[9] = second compound 0.1 µM, first compound 0.316 µM
[10] = second compound 0.1 µM, first compound 1 µM
[11] = second compound 0.1 µM, first compound 3.16 µM
[12] = second compound 0.1 µM, first compound 10 µM
[13] = second compound 0.316 µM, first compound 0.0316 µM
[14] = second compound 0.316 µM, first compound 0.1 µM
[15] = second compound 0.316 µM, first compound 0.316 µM
[16] = second compound 0.316 µM, first compound 1 µM
[17] = second compound 0.316 µM, first compound 3.16 µM
[18] = second compound 0.316 µM, first compound 10 µM
[19] = second compound 1 µM, first compound 0.0316 µM
[20] = second compound 1 µM, first compound 0.1 µM
[21] = second compound 1 µM, first compound 0.316 µM
[22] = second compound 1 µM, first compound 1 µM
[23] = second compound 1 µM, first compound 3.16 µM
[24] = second compound 1 µM, first compound 10 µM
[25] = second compound 3.16 µM, first compound 0.0316 µM
[26] = second compound 3.16 µM, first compound 0.1 µM
[27] = second compound 3.16 µM, first compound 0.316 µM
[28] = second compound 3.16 µM, first compound 1 µM
[29] = second compound 3.16 µM, first compound 3.16 µM
[30] = second compound 3.16 µM, first compound 10 µM
[31] = second compound 10 µM, first compound 0.0316 µM
[32] = second compound 10 µM, first compound 0.1 µM
[33] = second compound 10 µM, first compound 0.316 µM
[34] = second compound 10 µM, first compound 1 µM
[35] = second compound 10 µM, first compound 3.16 µM
[36] = second compound 10 µM, first compound 10 µM
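Also: spheroids exposed to compounds for one week.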
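For viability, T/C in this document: 100% = vehicle DMSO treated spheroids.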

COc1cc(C2c3cc4c(cc3C(OC3OC5COC(C)OC5C(O)C3O)C3COC(=O)C23)OCO4)cc(OC)c1O (stereo unspecified) + Nc1ccc(C#CCN(C(=O)Cc2ncc(C(F)(F)F)cc2C(F)(F)F)c2ccc(F)cc2)nn1
IC50 (second compound 0.0316 µM): 417 nM
IC50 (second compound 0.1 µM): 482 nM
IC50 (second compound 0.316 µM): 315 nM
IC50 (second compound 1 µM): 375 nM
IC50 (second compound 3.16 µM): 341 nM
IC50 (second compound 10 µM): 219 nM
viability, T/C [1]: 98.2%
viability, T/C [2]: 93.8%
viability, T/C [3]: 47.1%
viability, T/C [4]: 37.2%
viability, T/C [5]: 16.8%
viability, T/C [6]: 10.4%
viability, T/C [7]: 97.4%
viability, T/C [8]: 92.5%
viability, T/C [9]: 45.8%
viability, T/C [10]: 46%
viability, T/C [11]: 11.4%
viability, T/C [12]: 8.28%
viability, T/C [13]: 122%
viability, T/C [14]: 102%
viability, T/C [15]: 45%
viability, T/C [16]: 29.6%
viability, T/C [17]: 12.6%
viability, T/C [18]: 10.6%
viability, T/C [19]: 111%
viability, T/C [20]: 75.3%
viability, T/C [21]: 54%
viability, T/C [22]: 36.2%
viability, T/C [23]: 15.4%
viability, T/C [24]: 8.43%
viability, T/C [25]: 101%
viability, T/C [26]: 89.2%
viability, T/C [27]: 41.8%
viability, T/C [28]: 36.6%
viability, T/C [29]: 12.5%
viability, T/C [30]: 10%
viability, T/C [31]: 108%
viability, T/C [32]: 72.6%
viability, T/C [33]: 31%
viability, T/C [34]: 35.5%
viability, T/C [35]: 12.5%
viability, T/C [36]: 8.79%

Nc1ccn(C2OC(CO)C(O)C2(F)F)c(=O)n1 (stereo unspecified) + Nc1ccc(C#CCN(C(=O)Cc2ncc(C(F)(F)F)cc2C(F)(F)F)c2ccc(F)cc2)nn1
IC50 (second compound 0.0316 µM): < 31.6 nM
IC50 (second compound 0.1 µM): < 31.6 nM
IC50 (second compound 0.316 µM): < 31.6 nM
IC50 (second compound 1 µM): < 31.6 nM
IC50 (second compound 3.16 µM): < 31.6 nM
IC50 (second compound 10 µM): 68.3 nM
viability, T/C [1]: 15.4%
viability, T/C [2]: 11.3%
viability, T/C [3]: 11.7%
viability, T/C [4]: 10.9%
viability, T/C [5]: 10.4%
viability, T/C [6]: 5.84%
viability, T/C [7]: 17.8%
viability, T/C [8]: 13%
viability, T/C [9]: 11.4%
viability, T/C [10]: 11.2%
viability, T/C [11]: 8.25%
viability, T/C [12]: 6.36%
viability, T/C [13]: 18.4%
viability, T/C [14]: 11.9%
viability, T/C [15]: 13%
viability, T/C [16]: 12.1%
viability, T/C [17]: 11.4%
viability, T/C [18]: 6.35%
viability, T/C [19]: 28.2%
viability, T/C [20]: 11.8%
viability, T/C [21]: 12.3%
viability, T/C [22]: 13.7%
viability, T/C [23]: 10.3%
viability, T/C [24]: 6.64%
viability, T/C [25]: 46.4%
viability, T/C [26]: 15.8%
viability, T/C [27]: 13.1%
viability, T/C [28]: 13.7%
viability, T/C [29]: 9.36%
viability, T/C [30]: 7.65%
viability, T/C [31]: 87.1%
viability, T/C [32]: 31.4%
viability, T/C [33]: 14.1%
viability, T/C [34]: 14.3%
viability, T/C [35]: 10.6%
viability, T/C [36]: 9.19%

O=c1[nH]cc(F)c(=O)[nH]1 + Nc1ccc(C#CCN(C(=O)Cc2ncc(C(F)(F)F)cc2C(F)(F)F)c2ccc(F)cc2)nn1
IC50 (second compound 0.0316 µM): > 10000 nM
IC50 (second compound 0.1 µM): > 10000 nM
IC50 (second compound 0.316 µM): > 10000 nM
IC50 (second compound 1 µM): > 10000 nM
IC50 (second compound 3.16 µM): > 10000 nM
IC50 (second compound 10 µM): > 10000 nM
viability, T/C [1]: 101%
viability, T/C [2]: 113%
viability, T/C [3]: 93.8%
viability, T/C [4]: 91.9%
viability, T/C [5]: 68.7%
viability, T/C [6]: 54.7%
viability, T/C [7]: 117%
viability, T/C [8]: 112%
viability, T/C [9]: 101%
viability, T/C [10]: 108%
viability, T/C [11]: 64.9%
viability, T/C [12]: 54.4%
viability, T/C [13]: 103%
viability, T/C [14]: 105%
viability, T/C [15]: 119%
viability, T/C [16]: 76.5%
viability, T/C [17]: 66.5%
viability, T/C [18]: 54.9%
viability, T/C [19]: 107%
viability, T/C [20]: 93.8%
viability, T/C [21]: 96.4%
viability, T/C [22]: 90.8%
viability, T/C [23]: 61.3%
viability, T/C [24]: 56.4%
viability, T/C [25]: 102%
viability, T/C [26]: 99%
viability, T/C [27]: 103%
viability, T/C [28]: 89%
viability, T/C [29]: 65.1%
viability, T/C [30]: 53.3%
viability, T/C [31]: 101%
viability, T/C [32]: 110%
viability, T/C [33]: 95.5%
viability, T/C [34]: 94.7%
viability, T/C [35]: 68.9%
viability, T/C [36]: 54.5%
